According to patent US8361968B2 (Takeda Pharmaceutical Company Limited, priority 2002, dated 2013):
Read-outs that look alike come from different tables or passages of the source. Numbered stars: 1 amine (or outer) side, 2 acyl side, 3 side chain; on linkers, the order of the positions; unused ones are H or OH. Square brackets hold non-standard residues; d marks the D form. Peptide text beside a SMILES is read from it. * marks the point of attachment. X11 = O=C(CNC(=S)[C@H](Cc1ccccc1)N[*:1])[*:2]; 1Nal = N[C@@H](Cc1cccc2ccccc12)C(=O)O; Arg(Me) = CNC(=N)NCCC[C@H](N)C(=O)O; Hydrocinnamoyl = O=C(CCc1ccccc1)*; 4Pal = N[C@@H](Cc1ccncc1)C(=O)O; Cha = N[C@@H](CC1CCCCC1)C(=O)O; azaGly = NNC(=O)O

Key:
[1] = tested on: hOT7T175-expressed CHO cells; format: cell-based
Description: Assay for Cell Growth Inhibition Activity in hOT7T175-Expressed Cho Cells hOT7T175-Expressed CHO cells (hereinafter hOT7T175) were cultured in DMEM supplemented with 10% dialyzed FBS (hereinafter 10% dFBS/DMEM), which was used for the following assay. The hOT7T175 was suspended in 10% dFBS/DMEM at 10,000 cells/ml. The cells were plated on a 96 well plate at 100 μL each/well (1,000 cells/well), followed by culturing overnight at 37° C. in a 5% CO2 incubator. On the following day, the medium was removed and 90 μL of 10% dFBS/DMEM supplemented with 0.5% BSA (hereinafter, 0.5% BSA/10% dFBS/DMEM) was added. […] After 10 μL of Cell Counting Kit-8 solution (Dojin Chemical Laboratory) was added to each well, incubation was performed at 37° C. in a 5% CO2 incubator for 4 hours and absorbance was measured at 450 nm.

hOT7T175 [2] = molecular target: T1, hOT7T175 (Homo sapiens, UniProt Q969F8, L364H); test: Intracellular Ca ion level-increasing activity using FLIPR in hOT7T175/CHO; format: cell-based; design: expressed in transfected cells; host or cells: CHO/dhfr- cells, obtained from ATCC; conditions: relative, Metastin (1-54) = 1
T1 sequence (Q969F8 whole entry L364H): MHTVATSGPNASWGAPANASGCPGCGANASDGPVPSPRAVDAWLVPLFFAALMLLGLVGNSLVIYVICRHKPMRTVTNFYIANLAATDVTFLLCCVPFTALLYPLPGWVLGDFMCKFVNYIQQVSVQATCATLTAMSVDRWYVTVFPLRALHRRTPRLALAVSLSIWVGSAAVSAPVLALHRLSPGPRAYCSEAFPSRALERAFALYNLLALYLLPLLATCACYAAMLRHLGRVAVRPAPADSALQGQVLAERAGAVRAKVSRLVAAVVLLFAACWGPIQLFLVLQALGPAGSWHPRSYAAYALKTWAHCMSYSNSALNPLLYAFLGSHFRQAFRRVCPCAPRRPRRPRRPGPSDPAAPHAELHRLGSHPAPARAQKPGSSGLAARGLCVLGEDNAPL

in vitro = conditions: female, Balb/c, mouse, serum
Description: Blood was drawn from Balb/c mice (female) of 8 weeks old, settled at 37° C. for 30 minutes and centrifuged at 13000 rpm for 10 minutes to give the serum as the supernatant. The serum thus obtained was frozen-stored at −80° C.
The stability test was performed by addition of 5 nmol of Compound (5 μL of aqueous solution) to 45 μL of serum and then settlement of the mixture at 37° C. The settlement was made at 3 points of time, including 2, 10 and 30 minutes. The sample after the settlement was boiled for 3 minutes and cooled on an ice bath. After 200 μL of acetonitrile/water (3/1) was added to the sample, the mixture was ultrasonicated for 5 minutes and then centrifuged at 5000 rpm for 1 minute. After 150 μL of the supernatant was diluted with 250 μL of distilled water, insoluble matters were removed by filtration through a filter having a pore size of 0.45 μm and 200 μL of the filtrate was applied on HPLC (220 nm) to determine the peak area of Compound. A ratio of the peak area to the area when Compound was treated for 0 minute under the same conditions was calculated as a mean value in 4 respective runs to determine the residual ratio. Next, by taking the calculated residual ratio on the ordinate and the time on the abscissa, a graph was prepared and approximated by an exponential function.
The preparative HPLC used was the LC-VP series manufactured by Shimadzu Corporation and Wakosil-II 5C18 HG (4.6 mm×100 mm) manufactured by Wako Pure Chemical Industries, Ltd. was used as the column. Eluant A (0.1% TFA-containing water) and eluant B (0.1% TFA-containing acetonitrile) were used as eluants. Analysis was performed by linear density gradient elution (25 minutes) at a flow rate of 1.0 ml/min. using eluants A/B: 100/0-0/50.

hOT7T175 [3] = molecular target: T1, hOT7T175; test: hOT7T175 receptor binding activity: binding inhibition of Cy-5-labeled metastin (40-54) on hOT7T175-expressed CHO cells; design: expressed in transfected cells; host or cells: CHO cells
[4] = hOT7T175-expressed CHO cells, 3 days culture, Cell Counting Kit-8, read-out: IC50 (M), cell growth inhibition activity

| SMILES | Specific Activity (intracellular Ca ion level-increasing activity) (hOT7T175 [2]) | half-life at 100 µM (in vitro) | IC50 (hOT7T175 [3]) | other results |
| --- | --- | --- | --- | --- |
| CNC(=N)NCCC[C@H](NC(=O)[C@H](CC(C)C)NC(=O)NNC(=O)[C@H](Cc1ccccc1)NC(=O)[C@H](CO)NC(=O)[C@H](CC(N)=O)NC(=O)[C@H](Cc1ccncc1)NC(=O)[C@@H](CC(N)=O)NC(=O)[C@H](N)Cc1ccc(O)cc1)C(=O)N[C@@H](Cc1ccccc1)C(N)=O [Compound No. 303, D-Tyr-D-Asn-Pya(4)-Asn-Ser-Phe-AzaGly-Leu-Arg(Me)-Phe-NH2] (H-[dY][dN][4Pal]NSF[azaGly]L[Arg(Me)]F-NH2) | 5 |  |  | IC50 [1, 4]: 4.12e-08 M |
| CC[C@H](C)[C@H](NC(=O)[C@H](CCC(N)=O)NC(=O)[C@H](CCCNC(=N)N)NC(=O)[C@H](CO)NC(=O)[C@H](Cc1c[nH]cn1)NC(=O)[C@@H]1CCCN1C(=O)[C@H](C)NC(=O)[C@H](CO)NC(=O)[C@H](CC(C)C)NC(=O)CNC(=O)[C@@H]1CCCN1C(=O)[C@H](CCC(N)=O)NC(=O)[C@H](CCC(N)=O)NC(=O)[C@H](CCCNC(=N)N)NC(=O)[C@H](CO)NC(=O)CNC(=O)[C@H](CO)NC(=O)[C@H](CO)NC(=O)[C@H](CCC(=O)O)NC(=O)[C@@H]1CCCN1C(=O)[C@@H]1CCCN1C(=O)[C@@H]1CCCN1C(=O)[C@H](CO)NC(=O)[C@H](CC(C)C)NC(=O)[C@H](CO)NC(=O)[C@@H](NC(=O)CN)[C@@H](C)O)C(=O)N1CCC[C@H]1C(=O)N[C@@H](C)C(=O)N1CCC[C@H]1C(=O)N[C@@H](CCC(N)=O)C(=O)NCC(=O)N[C@@H](C)C(=O)N[C@H](C(=O)N[C@@H](CC(C)C)C(=O)N[C@H](C(=O)N[C@@H](CCC(N)=O)C(=O)N[C@@H](CCCNC(=N)N)C(=O)N[C@@H](CCC(=O)O)C(=O)N[C@@H](CCCCN)C(=O)N[C@@H](CC(=O)O)C(=O)N[C@@H](CC(C)C)C(=O)N1CCC[C@H]1C(=O)N[C@@H](CC(N)=O)C(=O)N[C@@H](Cc1ccc(O)cc1)C(=O)N[C@@H](CC(N)=O)C(=O)N[C@@H](Cc1c[nH]c2ccccc12)C(=O)N[C@@H](CC(N)=O)C(=O)N[C@@H](CO)C(=O)N[C@@H](Cc1ccccc1)C(=O)NCC(=O)N[C@@H](CC(C)C)C(=O)N[C@@H](CCCNC(=N)N)C(=O)N[C@@H](Cc1ccccc1)C(N)=O)C(C)C)C(C)C [1-54] |  |  |  | IC50 [1]: 2.12e-07 M |
| CNC(=N)NCCC[C@H](NC(=O)[C@H](CC(C)C)NC(=O)CNC[C@H](Cc1ccccc1)NC(=O)[C@H](CO)NC(=O)[C@H](CC(N)=O)NC(=O)[C@H](Cc1c[nH]c2ccccc12)NC(=O)[C@H](CC(N)=O)NC(=O)[C@H](N)Cc1ccc(O)cc1)C(=O)N[C@@H](Cc1ccccc1)C(N)=O [Compound No. 308, D-Tyr-Asn-Trp-Asn-Ser-PheΨ(CH2NH)Gly-Leu-Arg(Me)-Phe-NH2] | 2 | 13.2 min |  |  |
| CNC(N)=NCCC[C@H](NC(=O)[C@H](CC(C)C)NC(=O)CNC(=S)[C@H](Cc1ccccc1)NC(=O)[C@H](CO)NC(=O)[C@H](CC(N)=O)NC(=O)[C@H](Cc1c[nH]c2ccccc12)NC(=O)[C@H](CC(N)=O)NC(=O)[C@H](N)Cc1ccc(O)cc1)C(=O)N[C@@H](Cc1ccccc1)C(N)=O [Compound No. 296, D-Tyr-Asn-Trp-Asn-Ser-PheΨ(CSNH)Gly-Leu-Arg(Me)-Phe-NH2] (H-[dY]NWNS[X11]L[Arg(Me)]F-NH2) |  | 47.2 min |  |  |
| CC(C)C[C@H](NC(=O)CNC(=O)[C@H](Cc1ccccc1)NC(=O)[C@H](CO)NC(=O)[C@H](CC(N)=O)NC(=O)[C@H](Cc1c[nH]c2ccccc12)NC(=O)[C@H](CC(N)=O)NC(=O)[C@@H](N)Cc1ccc(O)cc1)C(=O)N[C@@H](CCCNC(=N)N)C(=O)N[C@@H](Cc1ccccc1)C(N)=O [45-54] |  |  |  | IC50 [1, 4]: 8.51e-06 M |
| CNC(N)=NCCC[C@H](NC(=O)[C@H](CC(C)C)NC(=O)NNC(=O)[C@H](Cc1ccccc1)NC(=O)[C@H](CO)NC(=O)[C@H](CC(N)=O)NC(=O)[C@H](Cc1ccncc1)NC(=O)[C@H](CC(N)=O)NC(=O)[C@H](N)Cc1ccc(O)cc1)C(=O)N[C@@H](Cc1ccccc1)C(N)=O [Compound No. 286, D-Tyr-Asn-Pya(4)-Asn-Ser-Phe-AzaGly-Leu-Arg(Me)-Phe-NH2] (H-[dY]N[4Pal]NSF[azaGly]L[Arg(Me)]F-NH2) |  | 57.5 min | 17 nM |  |
| CC[C@H](C)[C@H](NC(=O)[C@H](CCC(N)=O)NC(=O)[C@H](CCCNC(=N)N)NC(=O)[C@H](CO)NC(=O)[C@H](Cc1c[nH]cn1)NC(=O)[C@@H]1CCCN1C(=O)[C@H](C)NC(=O)[C@H](CO)NC(=O)[C@H](CC(C)C)NC(=O)CNC(=O)[C@@H]1CCCN1C(=O)[C@H](CCC(N)=O)NC(=O)[C@H](CCC(N)=O)NC(=O)[C@H](CCCNC(=N)N)NC(=O)[C@H](CO)NC(=O)CNC(=O)[C@H](CO)NC(=O)[C@H](CO)NC(=O)[C@H](CCC(=O)O)NC(=O)[C@@H]1CCCN1C(=O)[C@@H]1CCCN1C(=O)[C@@H]1CCCN1C(=O)[C@H](CO)NC(=O)[C@H](CC(C)C)NC(=O)[C@H](CO)NC(=O)[C@@H](NC(=O)CN)[C@@H](C)O)C(=O)N1CCC[C@H]1C(=O)N[C@@H](C)C(=O)N1CCC[C@H]1C(=O)N[C@@H](CCC(N)=O)C(=O)NCC(=O)N[C@@H](C)C(=O)N[C@H](C(=O)N[C@@H](CC(C)C)C(=O)N[C@H](C(=O)N[C@@H](CCC(N)=O)C(=O)N[C@@H](CCCNC(=N)N)C(=O)N[C@@H](CCC(=O)O)C(=O)N[C@@H](CCCCN)C(=O)N[C@@H](CC(=O)O)C(=O)N[C@@H](CC(C)C)C(=O)N1CCC[C@H]1C(=O)N[C@@H](CC(N)=O)C(=O)N[C@@H](Cc1ccc(O)cc1)C(=O)N[C@@H](CC(N)=O)C(=O)N[C@@H](Cc1c[nH]c2ccccc12)C(=O)N[C@@H](CC(N)=O)C(=O)N[C@@H](CO)C(=O)N[C@@H](Cc1ccccc1)C(=O)NCC(=O)N[C@@H](CC(C)C)C(=O)N[C@@H](CCCNC(=N)N)C(=O)N[C@@H](Cc1ccccc1)C(N)=O)C(C)C)C(C)C [Compound No. 1, Metastin, reference compound] |  | 22.5 min |  |  |
| CC(C)C[C@H](NC(=O)CNC(=O)[C@H](Cc1ccccc1)NC(=O)[C@H](CO)NC(=O)[C@H](CC(N)=O)NC(=O)[C@H](Cc1c[nH]c2ccccc12)NC(=O)[C@H](CC(N)=O)NC(=O)[C@@H](N)Cc1ccc(O)cc1)C(=O)N[C@@H](CCCNC(=N)N)C(=O)N[C@@H](Cc1ccc(N)cc1)C(N)=O [Compound No. 131] | 3 |  | 120 nM |  |
| CNC(=N)NCCC[C@H](NC(=O)[C@@H](NC(=O)CNC(=O)[C@H](Cc1ccccc1)NC(=O)[C@H](CO)NC(=O)[C@H](CC(N)=O)NC(=O)[C@H](Cc1c[nH]c2ccccc12)NC(=O)[C@H](CC(N)=O)NC(=O)[C@H](N)Cc1ccc(O)cc1)C(C)C)C(=O)N[C@@H](Cc1ccccc1)C(N)=O [Compound No. 213] (H-[dY]NWNSFGV[Arg(Me)]F-NH2) | 2 |  | 190 nM |  |
| CNC(=N)NCCC[C@H](NC(=O)[C@H](CC(C)C)NC(=O)NNC(=O)[C@H](Cc1ccccc1)NC(=O)[C@H](CO)NC(=O)[C@H](CC(N)=O)NC(=O)CCc1ccccc1)C(=O)N[C@@H](Cc1ccccc1)C(N)=O [Compound No. 269, 3-Phenylpropionyl-Asn-Ser-Phe-AzaGly-Leu-Arg(Me)-Phe-NH2] (Hydrocinnamoyl-NSF[azaGly]L[Arg(Me)]F-NH2) | 3 |  | 470 nM |  |
| CNC(=N)NCCC[C@H](NC(=O)[C@H](CC(C)C)NC(=O)NNC(=O)[C@H](Cc1ccccc1)NC(=O)[C@H](CO)NC(=O)[C@H](CC(N)=O)NC(=O)[C@H](Cc1cccc2ccccc12)NC(=O)[C@H](CC(N)=O)NC(=O)[C@H](N)Cc1ccc(O)cc1)C(=O)N[C@@H](Cc1ccccc1)C(N)=O [Compound No. 245, D-Tyr-Asn-Nal(1)-Asn-Ser-Phe-AzaGly-Leu-Arg(Me)-Phe-NH2] (H-[dY]N[1Nal]NSF[azaGly]L[Arg(Me)]F-NH2) | 1 |  | 98 nM |  |
| CC(C)C[C@H](NC(=O)CNC(=O)[C@H](Cc1ccccc1)NC(=O)[C@H](CO)NC(=O)[C@H](CC(N)=O)NC(=O)[C@H](Cc1c[nH]c2ccccc12)NC(=O)[C@H](CC(N)=O)NC(=O)[C@@H](N)Cc1ccc(O)cc1)C(=O)N[C@@H](CCCNC(=N)N)C(=O)N[C@@H](Cc1c[nH]c2ccccc12)C(N)=O [Compound No. 134] (H-YNWNSFGLRW-NH2) | 30 | 2.4 min | 110 nM |  |
| CNC(=N)NCCC[C@H](NC(=O)[C@H](CC(C)C)NC(=O)CNC(=O)[C@H](CC1CCCCC1)NC(=O)[C@H](CO)NC(=O)[C@H](CC(N)=O)NC(=O)[C@H](CC1CCCCC1)NC(=O)[C@H](CC(N)=O)NC(=O)[C@H](N)Cc1ccc(O)cc1)C(=O)N[C@@H](Cc1c[nH]c2ccccc12)C(N)=O [Compound No. 182, D-Tyr-Asn-Cha-Asn-Ser-Cha-Gly-Leu-Arg(Me)-Trp-NH2] (H-[dY]N[Cha]NS[Cha]GL[Arg(Me)]W-NH2) | 5 |  | 98 nM |  |
| CNC(N)=NCCC[C@H](NC(=O)[C@H](CC(C)C)NC(=O)CNC(=O)[C@H](Cc1ccccc1)NC(=O)[C@H](CO)NC(=O)[C@H](CC(N)=O)NC(=O)[C@H](Cc1c[nH]c2ccccc12)NC(=O)[C@H](CC(N)=O)NC(=O)[C@@H](N)Cc1ccc(O)cc1)C(=O)N[C@@H](Cc1ccccc1)C(N)=O [Compound No. 82] |  | 1.8 min |  |  |
